Laboratory results: paper PMC11459966, “Oral pharmacokinetics and efficacy of oral phospholipid remdesivir nucleoside prodrugs against SARS-CoV-2 in mice” (Antimicrobial Agents and Chemotherapy, 2024)
Read-outs that look alike come from different tables or passages of the source.

Experiments:
[1] = test system: Huh7.5 cells; parameters: method as in PMID 37040439; settings: Huh7.5, CellTiter-Glo, previously published, identical conditions ref 7; cited from earlier work
[2] = test system: Calu-3 cells; parameters: method as in PMID 37040439; settings: Calu-3, CellTiter-Glo, previously published, identical conditions ref 7; cited from earlier work
[3] = test system: SARS-CoV-2 isolate USA-WA1/2020; settings: for Relative activity vs RVn (RVN EC50/Test Compound EC50) / SI (CC50/EC50): Huh7.5; for EC50: read-out: EC50 μM ± SD; for EC50 / EC90: Huh7.5 cells, 48 hpi; for EC90: read-out: EC90 μM ± SD
[4] = test system: Vero-TMPRSS2 cells; assay: Cell viability assay (CellTiter-Glo), Vero-TMPRSS2; format: cell-based, African green monkey; settings: 48 h incubation
Method: Cell viability assays (Table 1) were performed as previously described ([7]). Cells were cultured and seeded as per in vitro antiviral studies in opaque walled 96-well cell culture plates and incubated overnight for Huh7.5, A2T2-A549, and Vero-E6-TMPRSS2 cells and for 2 days for Calu-3 cells. Compounds or controls were added at the indicated concentrations in a total volume of 100 µL, and cells were incubated for 48 h. An equal volume of CellTiter-Glo reagent (Promega, Cat. #G7570) or CellTiter-Glo 2.0 reagent (Promega, Cat. #G9241) was added and mixed, and luminescence was recorded on a Veritas Microplate Luminometer (Turner BioSystems) or a Spark Multimode plate reader (Tecan) according to manufacturer instructions. Percent viability was normalized to DMSO controls, and CC50 values were derived from best fit curves calculated in Prism 10.

[5] = test system: SARS-CoV-2 isolate USA-WA1/2020; assay: microbe, parasite or virus in culture; format: cell-based; settings: for Relative activity vs RVn (RVN EC50/Test Compound EC50): Calu-3; for EC50 / EC90: Calu-3 cells, 44–48 hpi
[6] = Single dose PO or IV plasma pharmacokinetics and tolerability in BALB/c mice; settings: BALB/c mice; for tolerability of single escalating oral doses: 20, 60 or 180 mg/kg single oral dose; for F% (oral bioavailability): oral vs IV (7 mg/kg) prodrug exposure, printed on the 20 mg/kg oral lines
[7] = test system: SARS-CoV-2 isolate USA-WA1/2020; parameters: method as in PMID 37040439; settings: Calu-3, dotted lines of Fig. 2 and 3 ref 7; read-out: in vitro EC90 for SARS-CoV-2 infection in Calu-3 cells; cited from earlier work
[8] = 5-day oral tolerability study with terminal pharmacokinetics in BALB/c mice; format: in vivo; settings: 80 mg/kg or 100 mg/kg daily PO
Method: Fig 3 Oral RVn prodrugs maintain high serum levels after repeated dosing in mice and hamsters. Multiple-dose oral tolerability and pharmacokinetics in mice and Syrian hamsters: (A and B) 5-day oral tolerability study in BALB/c mice with pharmacokinetics obtained after the final dose. Male 20–22 g mice were given the indicated drugs at (A) 80 mg/kg or (B) 100 mg/kg PO daily in 0.1 M sodium carbonate/bicarbonate pH 9 for 5 days. Plasma was obtained after the last dose at 1, 3, 6, and 12 h (In Vivo Technologies, Moffatt Field, CA). (C) 7-day oral tolerability study in Syrian hamsters with pharmacokinetics obtained after the final dose. […] All plasma samples were analyzed to determine prodrug levels (Aliri Bio, Colorado Springs, CO).
After fortification, 50 µL of plasma was crashed with 400 µL of methanol containing 10 ng/mL of the internal standard (V2066). One hundred fifty microliters of the supernatant was removed and diluted with 150 µL of water in a clean 96 well injection plate.
Chromatography for the prodrugs was performed on a Raptor Biphenyl (2.1 × 50) column at a flow rate of 0.5 mL/min. A gradient method starting at 60% B (0.1% formic acid in 90:10 methanol:acetonitrile) for 30 s and then ramping to 95% B over 2.5 min. This composition was held for 1.0 min before being returned to starting conditions and re-equilibration to 40% A (10 mM ammonium formate with 0.2% formic acid in water).
Oral pharmacokinetic studies were carried out at In Vivo Technologies (Moffatt Field, CA) in male BALB/c mice, 22–23 g under IACUC protocol number IVT-11–010Y12 (LifeSource Animal Care and Use Committee). […] Blood was obtained by facial vein or terminal cardiac puncture at the indicated times and plasma was frozen for analysis. Similar procedures were followed for 5-day tolerability and terminal dose pharmacokinetic studies in mice at oral daily doses of 80 or 100 mg/kg.

[9] = test system: SARS-CoV-2 isolate USA-WA1/2020; settings: for Relative activity vs RVn (RVN EC50/Test Compound EC50) / SI (CC50/EC50): Vero-TMPRSS2; for EC50: read-out: EC50 μM ± SD; for EC50 / EC90: Vero-TMPRSS2 cells, 32 hpi; for EC90: read-out: EC90 μM ± SD
[10] = test system: A2T2-A549 cells; assay: Cell viability assay (CellTiter-Glo), A2T2-A549; settings: A2T2-A549, CellTiter-Glo, 48 h incubation
[11] = test system: SARS-CoV-2 isolate USA-WA1/2020; settings: for Relative activity vs RVn (RVN EC50/Test Compound EC50) / SI (CC50/EC50): A2T2-A549; for EC50: read-out: EC50 μM ± SD; for EC50 / EC90: A2T2-A549 cells, 48 hpi; for EC90: read-out: EC90 μM ± SD
[12] = test system: SARS-CoV-2 isolate USA-WA1/2020; assay: microbe, parasite or virus in culture
[13] = parameters: method as in PMID 38776389; settings: twice daily oral 30 mg/kg doses, BALB/c mice ref 10; cited from earlier work

Compound: CCCCCCCCC=CCCCCCCCCOCC(COP(=O)(O)OCC1OC(C#N)(c2ccc3c(N)ncnn23)C(O)C1O)OCc1ccc(OC)c(F)c1 (stereo not shown) [Compound V2053]
- CC50 [1]: > 100000 nM
- CC50 [2]: 58700 nM
- Relative activity vs RVn (RVN EC50/Test Compound EC50) [3]: 28.9×
- SI (CC50/EC50) [3]: >2,128
- EC50 [3]: 0.047 ± 0.015 µM
- EC90 [3]: 0.136 ± 0.058 µM
- CC50 [4]: > 100000 nM
- Relative activity vs RVn (RVN EC50/Test Compound EC50) [5]: 9.0×
- EC50 [5]: 0.074 ± 0.014 µM
- EC90 [5]: 0.153 ± 0.047 µM
- tolerability of single escalating oral doses [6]: well tolerated with no appreciable adverse effects
- AUC ([6]; IV, 7 mg/kg, plasma): 9.58 µM·h
- Cmax ([6]; IV, 7 mg/kg, plasma): 30.2 µM
- T1/2 ([6]; IV, 7 mg/kg, plasma): 0.29 h
- AUC ([6]; Oral, 20 mg/kg): 13.60 µM·h
- CL/F ([6]; Oral, 20 mg/kg): 28 mL/min/kg
- Cmax ([6]; Oral, 20 mg/kg): 1.78 µM
- T1/2 ([6]; Oral, 20 mg/kg): 6.04 h
- Vd/F ([6]; Oral, 20 mg/kg): 14.60 L/kg
- AUC ([6]; Oral, 60 mg/kg): 53.10 µM·h
- CL/F ([6]; Oral, 60 mg/kg): 22.3 mL/min/kg
- Cmax ([6]; Oral, 60 mg/kg): 7.66 µM
- T1/2 ([6]; Oral, 60 mg/kg): 3.44 h
- Vd/F ([6]; Oral, 60 mg/kg): 6.67 L/kg
- AUC ([6]; Oral, 180 mg/kg): 90.80 µM·h
- CL/F ([6]; Oral, 180 mg/kg): 30.2 mL/min/kg
- Cmax ([6]; Oral, 180 mg/kg): 12.5 µM
- T1/2 ([6]; Oral, 180 mg/kg): 7.06 h
- Vd/F ([6]; Oral, 180 mg/kg): 18.50 L/kg
- F% (oral bioavailability) [6]: 51.0%
- EC90 [7]: 154 nM
- tolerability of once-daily oral doses for 5 days [8]: no adverse clinical effects were noted
- Relative activity vs RVn (RVN EC50/Test Compound EC50) [9]: 8.0×
- SI (CC50/EC50) [9]: >746
- EC50 [9]: 0.134 ± 0.05 µM
- EC90 [9]: 0.367 ± 0.139 µM
- CC50 [10]: > 100000 nM
- Relative activity vs RVn (RVN EC50/Test Compound EC50) [11]: 7.3×
- SI (CC50/EC50) [11]: >243
- EC50 [11]: 0.41 ± 0.04 µM
- EC90 [11]: 0.811 ± 0.059 µM

Compound: CC(C)C(=O)OC[C@H]1O[C@@](C#N)(c2ccc3c(N)ncnn23)[C@H](O)[C@@H]1O [Obeldesivir GS-5245, reference compound]
- EC50 ([12]; Severe acute respiratory syndrome coronavirus 2, read-out: EC50 μM ± SD): 1.2 ± 0.084 µM
- EC90 ([12]; Severe acute respiratory syndrome coronavirus 2, read-out: EC90 μM ± SD): 1.89 ± 0.46 µM
- daily systemic exposure [13]: 108 µM·h

Compound: CCCCCCCCCCCCCCCCCCOCC(COP(=O)(O)OC[C@H]1O[C@@](C#N)(c2ccc3c(N)ncnn23)[C@H](O)[C@@H]1O)OCc1ccc(C#N)cc1 (stereo partly shown) [Compound V2067]
- CC50 [1]: 47200 nM
- CC50 [2]: 60200 nM
- Relative activity vs RVn (RVN EC50/Test Compound EC50) [3]: 37.7×
- SI (CC50/EC50) [3]: 1,311
- EC50 [3]: 0.036 ± 0.014 µM
- EC90 [3]: 0.096 ± 0.037 µM
- CC50 [4]: 57000 nM
- Relative activity vs RVn (RVN EC50/Test Compound EC50) [5]: 12.5×
- EC50 [5]: 0.053 ± 0.018 µM
- EC90 [5]: 0.172 ± 0.14 µM
- tolerability of single escalating oral doses [6]: well tolerated with no appreciable adverse effects
- AUC ([6]; IV, 7 mg/kg, plasma): 36.16 µM·h
- Cmax ([6]; IV, 7 mg/kg, plasma): 116 µM
- T1/2 ([6]; IV, 7 mg/kg, plasma): 0.23 h
- AUC ([6]; Oral, 20 mg/kg): 64.70 µM·h
- CL/F ([6]; Oral, 20 mg/kg): 6.22 mL/min/kg
- Cmax ([6]; Oral, 20 mg/kg): 8.83 µM
- T1/2 ([6]; Oral, 20 mg/kg): 4.06 h
- Vd/F ([6]; Oral, 20 mg/kg): 2.18 L/kg
- AUC ([6]; Oral, 60 mg/kg): 154.00 µM·h
- CL/F ([6]; Oral, 60 mg/kg): 7.5 mL/min/kg
- Cmax ([6]; Oral, 60 mg/kg): 24.9 µM
- T1/2 ([6]; Oral, 60 mg/kg): 6.83 h
- Vd/F ([6]; Oral, 60 mg/kg): 4.38 L/kg
- AUC ([6]; Oral, 180 mg/kg): 332.00 µM·h
- CL/F ([6]; Oral, 180 mg/kg): 8.17 mL/min/kg
- Cmax ([6]; Oral, 180 mg/kg): 41 µM
- T1/2 ([6]; Oral, 180 mg/kg): 12.40 h
- Vd/F ([6]; Oral, 180 mg/kg): 8.74 L/kg
- F% (oral bioavailability) [6]: 57.0%
- EC90 [7]: 82 nM
- tolerability of once-daily oral doses for 5 days [8]: no adverse clinical effects were noted
- Relative activity vs RVn (RVN EC50/Test Compound EC50) [9]: 23.4×
- SI (CC50/EC50) [9]: 1,239
- EC50 [9]: 0.046 ± 0.014 µM
- EC90 [9]: 0.107 ± 0.02 µM
- CC50 [10]: 82300 nM
- Relative activity vs RVn (RVN EC50/Test Compound EC50) [11]: 14.1×
- SI (CC50/EC50) [11]: 386
- EC50 [11]: 0.213 ± 0.026 µM
- EC90 [11]: 0.441 ± 0.071 µM
